Source: ChEMBL document CHEMBL1201862, “PubChem BioAssay data set” (2004)
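In this assay, cells in 96-well plates receive the compound at five concentrations for 48 hours. Endpoints are linearly interpolated between the surrounding concentrations. At the GI50, growth is halved.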 Active and inactive are the calls of the source. Cut-off read from the data, not from the text of the source: active = GI50 up to about 1.1 µM and inactive = higher.

Tests used:
Experiment in all cases: inhibition of tumour cell growth, NCI panel, 48 h
[1] = tested on: ACHN
[2] = tested on: CAKI-1
[3] = tested on: CCRF-CEM
[4] = tested on: HCC 2998
[5] = tested on: HL-60
[6] = tested on: HOP-62
[7] = tested on: Hs-578T
[8] = tested on: K562
[9] = tested on: MDA-MB-435
[10] = tested on: MDA-N
[11] = tested on: NCI-H460
[12] = tested on: NCI/ADR-RES
[13] = tested on: OVCAR-8
[14] = tested on: RPMI-8226
[15] = tested on: SF-295
[16] = tested on: SK-OV-3
[17] = tested on: SNB-19
[18] = tested on: SR
[19] = tested on: TK-10
[20] = tested on: UACC-62

Compound: CCOC(=O)/C1=C(\C)N(Cc2ccccc2)C(=O)c2ccccc2C(=O)c2c(O)ccc(O)c21
- GI50 [1]: > 100 µM (inactive)
- GI50 [2]: > 100 µM (inactive)
- GI50 [3]: > 100 µM (inactive)
- GI50 [4]: > 100 µM (inactive)
- GI50 [5]: > 100 µM (inactive)
- GI50 [6]: > 100 µM (inactive)
- GI50 [7]: > 100 µM (inactive)
- GI50 [8]: > 100 µM (inactive)
- GI50 [9]: > 100 µM (inactive)
- GI50 [10]: > 100 µM (inactive)
- GI50 [11]: > 100 µM (inactive)
- GI50 [12]: > 100 µM (inactive)
- GI50 [13]: > 100 µM (inactive)
- GI50 [14]: 66.7 µM (inactive)
- GI50 [15]: > 100 µM (inactive)
- GI50 [16]: > 100 µM (inactive)
- GI50 [17]: > 100 µM (inactive)
- GI50 [18]: > 100 µM (inactive)
- GI50 [19]: > 100 µM (inactive)
- GI50 [20]: > 100 µM (inactive)

Compound: COc1cccc(Nc2nc(NNC(=O)Cc3ccccc3)nc(NNC(=O)c3ccncc3)n2)c1
- GI50 [1]: > 100 µM (inactive)
- GI50 [2]: > 10 µM (inactive)
- GI50 [3]: > 10 µM (inactive)
- GI50 [4]: > 10 µM (inactive)
- GI50 [5]: 68.1 µM (inactive)
- GI50 [6]: > 10 µM (inactive)
- GI50 [7]: > 10 µM (inactive)
- GI50 [8]: > 10 µM (inactive)
- GI50 [9]: 52.8 µM (inactive)
- GI50 [10]: > 10 µM (inactive)
- GI50 [11]: > 10 µM (inactive)
- GI50 [12]: > 10 µM (inactive)
- GI50 [13]: > 10 µM (inactive)
- GI50 [14]: > 10 µM (inactive)
- GI50 [15]: > 100 µM (inactive)
- GI50 [16]: > 10 µM (inactive)
- GI50 [17]: > 100 µM (inactive)
- GI50 [18]: 6.62 µM (inactive)
- GI50 [19]: > 10 µM (inactive)
- GI50 [20]: 4.71 µM (inactive)

Compound: CCN(CC)CCOCCOCC1(c2ccc(Cl)c(Cl)c2)CCCCC1
- GI50 [1]: 15.2 µM (inactive)
- GI50 [2]: 10.1 µM (inactive)
- GI50 [3]: 2.99 µM (inactive)
- GI50 [4]: 4.07 µM (inactive)
- GI50 [5]: 5.82 µM (inactive)
- GI50 [6]: 7.67 µM (inactive)
- GI50 [7]: 2.96 µM (inactive)
- GI50 [8]: 2.82 µM (inactive)
- GI50 [9]: 4 µM (inactive)
- GI50 [10]: 3.65 µM (inactive)
- GI50 [11]: 3.39 µM (inactive)
- GI50 [12]: 11.4 µM (inactive)
- GI50 [13]: 13.8 µM (inactive)
- GI50 [14]: 2.51 µM (inactive)
- GI50 [15]: 5.83 µM (inactive)
- GI50 [16]: 11.6 µM (inactive)
- GI50 [17]: 13.4 µM (inactive)
- GI50 [18]: 11 µM (inactive)
- GI50 [19]: 9.38 µM (inactive)
- GI50 [20]: 8.87 µM (inactive)

Compound: COc1ccc2c(c1)c1ccc3c(c1n2C)C(=O)C=CC3=O
- GI50 [1]: 6.24 µM (inactive)
- GI50 [2]: 8.26 µM (inactive)
- GI50 [3]: 0.455 µM (active)
- GI50 [4]: 17.9 µM (inactive)
- GI50 [5]: 0.904 µM (active)
- GI50 [6]: 35.5 µM (inactive)
- GI50 [7]: 8.09 µM (inactive)
- GI50 [8]: 1.22 µM (inactive)
- GI50 [9]: 7.96 µM (inactive)
- GI50 [10]: 8.91 µM (inactive)
- GI50 [11]: 26.9 µM (inactive)
- GI50 [12]: 5.79 µM (inactive)
- GI50 [13]: 11.4 µM (inactive)
- GI50 [14]: 2.17 µM (inactive)
- GI50 [15]: 24.3 µM (inactive)
- GI50 [16]: 29.2 µM (inactive)
- GI50 [17]: 26 µM (inactive)
- GI50 [18]: 0.813 µM (active)
- GI50 [19]: 7.76 µM (inactive)
- GI50 [20]: 12.8 µM (inactive)

Compound: Cc1ccc(NC(=O)C23CC4CC(CC(C4)C2)C3)c(C(=O)NNC(=O)c2ccc(Cl)cc2)c1
- GI50 [1]: 17.5 µM (inactive)
- GI50 [2]: 23.3 µM (inactive)
- GI50 [3]: 21.1 µM (inactive)
- GI50 [4]: 12.9 µM (inactive)
- GI50 [5]: 28.3 µM (inactive)
- GI50 [6]: 18.4 µM (inactive)
- GI50 [7]: 4.3 µM (inactive)
- GI50 [8]: 28.6 µM (inactive)
- GI50 [9]: 17.3 µM (inactive)
- GI50 [10]: 20.2 µM (inactive)
- GI50 [11]: 22 µM (inactive)
- GI50 [12]: 21.2 µM (inactive)
- GI50 [13]: 30.2 µM (inactive)
- GI50 [14]: 19 µM (inactive)
- GI50 [15]: 22.9 µM (inactive)
- GI50 [16]: 15.8 µM (inactive)
- GI50 [17]: 1.41 µM (inactive)
- GI50 [18]: 13.7 µM (inactive)
- GI50 [19]: 17.7 µM (inactive)
- GI50 [20]: 19.5 µM (inactive)
